# From ChEMBL document CHEMBL5113559, “From Oxetane to Thietane: Extending the Antiviral Spectrum of 2'-Spirocyclic Uridines by Substituting Oxygen with Sulfur” (ACS Med Chem Lett, 2022)
# pEC50: −log10 of the molar value.
# Columns and labels:
# dengue virus type 2 = assay: Antiviral activity against DENV2 16681 infected in human Huh-7 cells assessed as reduction in viral replication at MOI of 1 to 5 incubated for 3 days; format: functional, organism-based; details: Dengue virus, 16681, Huh-7, 72 h
# Hepatitis C virus = assay: Antiviral activity against HCV genotype 1b infected in human Huh7 cells incubated for 3 days and measured by luciferase reporter gene assay; format: functional, organism-based, Hepacivirus hominis; details: subtype 1b, Huh-7, 72 h
# Chikungunya virus = assay: Antiviral activity against CHIKV S27 infected in human Huh-7 cells at MOI of 0.25 incubated for 2 days and measured by ATPLite assay; format: functional, organism-based; details: S27, Huh-7, 48 h
# [1] = Cytotoxicity against human Huh-7 cells measured after 2 days by ATPLite-based viability assay; format: toxicity, cell-based; details: time 2 day
# [2] = Tmax in male C57BL/6 mouse at 50 mg/kg, sc measured by LC-MS/MS analysis; format: ADME, organism-based; details: in vivo
# [3] = Stability of compound in mouse plasma assessed as half-life incubated for 24 hrs and assessed as half-life at 1 uM by LC-MS/MS analysis; format: ADME, cell-free
# [4] = Stability of compound in human plasma assessed as half-life incubated for 24 hrs and assessed as half-life at 1 uM by LC-MS/MS analysis; format: ADME, cell-free
# [5] = Metabolic stability in mouse liver microsomes preincubated for 5 mins followed by addition of NADPH and assessed as intrinsic clearance by LC-MS/MS analysis; format: ADME, Microsome; details: read-out: CLH
# [6] = Tlast in male C57BL/6 mouse at 50 mg/kg, sc measured by LC-MS/MS analysis; format: ADME, organism-based; details: in vivo
# [7] = Metabolic stability in human liver microsomes assessed as intrinsic clearance preincubated for 5 mins followed by addition of NADPH and assessed as intrinsic clearance by LC-MS/MS analysis; format: ADME, Microsome; details: read-out: CLH
# [8] = Stability of compound in simulated gastric fluid incubated for 6 hrs and assessed as half-life at 1 uM by LC-MS/MS analysis; format: ADME
# [9] = AUClast in male C57BL/6 mouse at 50 mg/kg, po measured by LC-MS/MS analysis; format: ADME, organism-based; details: in vivo
# [10] = AUClast in male C57BL/6 mouse at 50 mg/kg, sc measured by LC-MS/MS analysis; format: ADME, organism-based; details: in vivo
# [11] = Cmax in male C57BL/6 mouse at 50 mg/kg, po measured by LC-MS/MS analysis; format: ADME, organism-based; set-up: dose 50 mg/kg, route po; details: in vivo
# [12] = Stability of compound in simulated gastric fluid incubated for 6 hrs at 1 uM and assessed as compound remaining after 6 hrs by LC-MS/MS analysis; format: ADME; details: read-out: Stability
# [13] = Stability of compound in fasted state simulated intestinal fluid incubated for 6 hrs and assessed as half-life at 1 uM by LC-MS/MS analysis; format: ADME
# Sindbis virus = assay: Antiviral activity against SINV AR339 infected in human Huh-7 cells measured by cytopathic effect inhibition assay; format: functional, organism-based; details: AR339, Huh-7
# [14] = Tlast in male C57BL/6 mouse at 50 mg/kg, po measured by LC-MS/MS analysis; format: ADME, organism-based; details: in vivo
# [15] = Tmax in male C57BL/6 mouse at 50 mg/kg, po measured by LC-MS/MS analysis; format: ADME, organism-based; details: in vivo
# [16] = Cmax in male C57BL/6 mouse at 50 mg/kg, sc measured by LC-MS/MS analysis; format: ADME, organism-based; set-up: dose 50 mg/kg, route sc; details: in vivo
smiles,measurement,setting,value
CC(C)OC(=O)[C@H](C)NP(=O)(OC[C@H]1O[C@@H](n2ccc(=O)[nH]c2=O)[C@@]2(CCO2)[C@@H]1O)Oc1ccccc1 (stereo partly specified),pEC50,dengue virus type 2,< 4.30
same,pEC50,Hepatitis C virus,4.67
same,pEC50,Chikungunya virus,< 4.00
same,CC50 at 48 h,[1],> 100 µM
CC(C)OC(=O)[C@H](C)NP(=O)(OC[C@H]1O[C@@H](n2ccc(=O)[nH]c2=O)[C@@]2(CCS2)[C@@H]1O)Oc1ccccc1 (stereo partly specified),pEC50,dengue virus type 2,4.58
same,pEC50,Hepatitis C virus,5.93
same,pEC50,Chikungunya virus,4.65
same,CC50 at 48 h,[1],> 100 µM
CC(C)OC(=O)[C@H](C)NP(=O)(OC[C@@]1(F)O[C@@H](n2ccc(=O)[nH]c2=O)[C@@]2(CCO2)[C@@H]1O)Oc1ccccc1 (stereo partly specified),pEC50,dengue virus type 2,< 4.00
same,pEC50,Hepatitis C virus,< 4.00
same,pEC50,Chikungunya virus,< 4.00
same,CC50 at 48 h,[1],> 100 µM
CC(C)OC(=O)[C@H](C)NP(=O)(OC[C@@]1(F)O[C@@H](n2ccc(=O)[nH]c2=O)[C@@]2(CCS2)[C@@H]1O)Oc1ccccc1 (stereo partly specified),pEC50,dengue virus type 2,4.55
same,pEC50,Hepatitis C virus,5.59
same,Tmax,[2],2 h
same,half-life at 1 µM,[3],< 0.4 h
same,pEC50,Chikungunya virus,5.49
same,half-life at 1 µM,[4],> 30 h
same,microsomal CLint,[5],> 347 µL/min/mg
same,Tlast,[6],7 h
same,microsomal CLint,[7],> 347 µL/min/mg
same,half-life at 1 µM,[8],> 6 h
same,AUClast,[9],3050 ng·h/g
same,AUClast,[10],10000 ng·h/g
same,Cmax,[11],637 ng/mg
same,"remaining at 6 h, 1 µM",[12],93%
same,half-life at 1 µM,[13],0.2 h
same,pEC50,Sindbis virus,5.21
same,Tlast,[14],7 h
same,Tmax,[15],2 h
same,Cmax,[16],2060 ng/mg
same,CC50 at 48 h,[1],> 100 µM
CC(C)OC(=O)[C@H](C)N[P@@](=O)(OC[C@@]1(F)O[C@@H](n2ccc(=O)[nH]c2=O)[C@@]2(CCS2)[C@@H]1O)Oc1ccccc1,pEC50,dengue virus type 2,4.53
same,pEC50,Hepatitis C virus,5.66
same,pEC50,Chikungunya virus,5.50
same,pEC50,Sindbis virus,5.24
same,CC50 at 48 h,[1],> 100 µM
CC(C)OC(=O)[C@H](C)N[P@](=O)(OC[C@@]1(F)O[C@@H](n2ccc(=O)[nH]c2=O)[C@@]2(CCS2)[C@@H]1O)Oc1ccccc1,pEC50,dengue virus type 2,4.38
same,pEC50,Hepatitis C virus,5.68
same,pEC50,Chikungunya virus,5.34
same,pEC50,Sindbis virus,5.23
same,CC50 at 48 h,[1],> 100 µM
"CC(C)OC(=O)C(C)NP(=O)(OC[C@@]1(N=[N+]=[N-])O[C@@H](n2ccc(=O)[nH]c2=O)[C@@]2(CCS2)[C@@H]1O)Oc1ccccc1 (single isomer, unassigned)",pEC50,dengue virus type 2,< 4.00
same,pEC50,Hepatitis C virus,5.55
same,pEC50,Chikungunya virus,< 4.00
same,CC50 at 48 h,[1],> 100 µM
"CCCCOC(=O)C(C)NP(=O)(OC[C@@]1(F)O[C@@H](n2ccc(=O)[nH]c2=O)[C@@]2(CCS2)[C@@H]1O)Oc1ccccc1 (single isomer, unassigned)",pEC50,dengue virus type 2,4.54
same,pEC50,Hepatitis C virus,5.72
same,pEC50,Chikungunya virus,5.54
same,pEC50,Sindbis virus,5.33
same,CC50 at 48 h,[1],> 100 µM
